Experimental data taken from ChEMBL document CHEMBL1152560, “Substituted 2-arylbenzothiazoles as kinase inhibitors: hit-to-lead optimization” (Bioorg Med Chem, 2009).

What was measured:
[1] = system: T1, Receptor-type tyrosine-protein kinase FLT3 (Homo sapiens), P36888 [D835Y]; test: Residual activity of FLT3 D835Y mutant at 1 uM by microplate scintillation counting
T1 sequence (whole entry): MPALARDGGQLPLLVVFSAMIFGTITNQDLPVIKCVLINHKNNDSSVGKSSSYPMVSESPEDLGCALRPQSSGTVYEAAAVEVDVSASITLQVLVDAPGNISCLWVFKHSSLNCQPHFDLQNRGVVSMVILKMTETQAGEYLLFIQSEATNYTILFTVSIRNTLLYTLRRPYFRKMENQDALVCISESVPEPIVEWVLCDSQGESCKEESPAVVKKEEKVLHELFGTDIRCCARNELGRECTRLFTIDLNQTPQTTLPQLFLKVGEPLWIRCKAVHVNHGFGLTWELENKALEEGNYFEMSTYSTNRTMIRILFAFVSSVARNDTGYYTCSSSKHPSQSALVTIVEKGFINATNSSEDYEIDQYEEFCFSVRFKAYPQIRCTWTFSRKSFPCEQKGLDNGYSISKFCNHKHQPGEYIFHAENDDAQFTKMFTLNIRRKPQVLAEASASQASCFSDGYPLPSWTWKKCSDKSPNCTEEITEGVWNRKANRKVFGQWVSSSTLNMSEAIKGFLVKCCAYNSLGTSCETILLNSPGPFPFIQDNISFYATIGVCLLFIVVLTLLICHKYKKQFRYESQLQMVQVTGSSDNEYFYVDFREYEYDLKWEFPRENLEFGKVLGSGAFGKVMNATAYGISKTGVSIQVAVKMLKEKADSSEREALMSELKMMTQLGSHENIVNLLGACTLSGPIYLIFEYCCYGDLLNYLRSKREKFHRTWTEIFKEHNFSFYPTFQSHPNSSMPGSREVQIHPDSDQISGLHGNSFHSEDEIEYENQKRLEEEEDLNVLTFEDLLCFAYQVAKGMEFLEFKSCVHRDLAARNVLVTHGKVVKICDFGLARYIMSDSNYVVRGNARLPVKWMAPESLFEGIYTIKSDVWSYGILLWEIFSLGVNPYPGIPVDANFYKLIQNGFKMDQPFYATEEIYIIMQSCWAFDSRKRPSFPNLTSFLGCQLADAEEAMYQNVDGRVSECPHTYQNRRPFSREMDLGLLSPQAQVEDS

[2] = target: T2, Inhibitor of nuclear factor kappa-B kinase subunit alpha (Homo sapiens) (UniProt O15111); test: Residual activity of IKKalpha at 0.1 uM by microplate scintillation counting
T2 sequence (whole entry): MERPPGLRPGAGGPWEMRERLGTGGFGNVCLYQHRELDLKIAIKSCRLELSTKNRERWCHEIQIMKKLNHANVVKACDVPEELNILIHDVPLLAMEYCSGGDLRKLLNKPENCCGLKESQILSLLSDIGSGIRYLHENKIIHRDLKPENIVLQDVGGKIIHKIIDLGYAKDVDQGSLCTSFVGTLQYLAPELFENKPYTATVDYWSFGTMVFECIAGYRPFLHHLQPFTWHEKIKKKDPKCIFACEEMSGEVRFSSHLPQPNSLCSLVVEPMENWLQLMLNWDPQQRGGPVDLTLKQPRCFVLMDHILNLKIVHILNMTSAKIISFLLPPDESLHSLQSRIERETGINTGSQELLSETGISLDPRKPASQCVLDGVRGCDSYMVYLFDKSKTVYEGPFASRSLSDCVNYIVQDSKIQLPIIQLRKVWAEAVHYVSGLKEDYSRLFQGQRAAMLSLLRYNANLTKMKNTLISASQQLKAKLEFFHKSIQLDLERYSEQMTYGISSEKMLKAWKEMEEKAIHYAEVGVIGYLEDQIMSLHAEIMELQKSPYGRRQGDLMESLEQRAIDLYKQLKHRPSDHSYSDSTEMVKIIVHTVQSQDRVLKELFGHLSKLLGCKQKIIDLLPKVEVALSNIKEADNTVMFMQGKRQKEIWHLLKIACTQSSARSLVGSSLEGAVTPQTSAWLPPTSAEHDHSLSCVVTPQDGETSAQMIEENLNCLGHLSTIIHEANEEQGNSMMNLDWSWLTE

[3] = target: Proto-oncogene tyrosine-protein kinase receptor Ret (Homo sapiens) (UniProt P07949); test: Residual activity of RET at 1 uM by microplate scintillation counting
[4] = target: T3, Serine/threonine-protein kinase 17A (Homo sapiens) (UniProt Q9UEE5); test: Residual activity of STK17A at 1 uM by microplate scintillation counting
T3 sequence (whole entry): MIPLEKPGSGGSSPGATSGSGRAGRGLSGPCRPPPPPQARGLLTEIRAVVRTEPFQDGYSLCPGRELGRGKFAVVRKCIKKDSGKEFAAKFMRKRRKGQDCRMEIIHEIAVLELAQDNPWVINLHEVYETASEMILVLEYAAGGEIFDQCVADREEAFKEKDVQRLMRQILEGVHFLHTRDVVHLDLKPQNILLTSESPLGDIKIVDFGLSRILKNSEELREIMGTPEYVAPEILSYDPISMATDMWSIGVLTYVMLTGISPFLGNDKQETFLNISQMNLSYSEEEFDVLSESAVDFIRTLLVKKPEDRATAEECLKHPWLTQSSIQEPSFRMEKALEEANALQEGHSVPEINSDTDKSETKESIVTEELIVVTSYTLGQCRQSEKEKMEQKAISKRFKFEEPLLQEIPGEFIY

[5] = target: Calcium/calmodulin-dependent protein kinase type 1D (Homo sapiens) (UniProt Q8IU85); test: Residual activity of CAMK1D at 10 uM by microplate scintillation counting
[6] = target: Maternal embryonic leucine zipper kinase (Homo sapiens) (UniProt Q14680); test: Residual activity of MELK at 10 uM by microplate scintillation counting
[7] = target: T4, Phosphorylase b kinase gamma catalytic chain, liver/testis isoform (Homo sapiens) (UniProt P15735); test: Residual activity of PHKG2 at 10 uM by microplate scintillation counting
T4 sequence (whole entry): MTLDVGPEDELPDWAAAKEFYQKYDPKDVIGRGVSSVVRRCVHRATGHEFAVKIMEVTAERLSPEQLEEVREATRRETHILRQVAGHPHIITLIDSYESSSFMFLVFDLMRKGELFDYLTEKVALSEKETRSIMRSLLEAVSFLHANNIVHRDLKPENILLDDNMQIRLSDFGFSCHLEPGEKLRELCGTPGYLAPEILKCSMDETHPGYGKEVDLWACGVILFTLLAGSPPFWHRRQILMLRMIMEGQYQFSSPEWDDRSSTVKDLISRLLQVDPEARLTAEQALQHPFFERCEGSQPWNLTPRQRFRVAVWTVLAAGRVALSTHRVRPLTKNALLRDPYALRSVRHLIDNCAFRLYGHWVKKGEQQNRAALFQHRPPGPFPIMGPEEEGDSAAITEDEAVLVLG

[8] = target: Receptor-interacting serine/threonine-protein kinase 2 (Homo sapiens) (UniProt O43353); test: Residual activity of RIPK2 at 0.1 uM by microplate scintillation counting
[9] = target: NT-3 growth factor receptor (Homo sapiens) (UniProt Q16288); test: Residual activity of TRK-C at 10 uM by microplate scintillation counting
Chain of NT-3 growth factor receptor (Homo sapiens) (Q16288 32-839 limits assumed): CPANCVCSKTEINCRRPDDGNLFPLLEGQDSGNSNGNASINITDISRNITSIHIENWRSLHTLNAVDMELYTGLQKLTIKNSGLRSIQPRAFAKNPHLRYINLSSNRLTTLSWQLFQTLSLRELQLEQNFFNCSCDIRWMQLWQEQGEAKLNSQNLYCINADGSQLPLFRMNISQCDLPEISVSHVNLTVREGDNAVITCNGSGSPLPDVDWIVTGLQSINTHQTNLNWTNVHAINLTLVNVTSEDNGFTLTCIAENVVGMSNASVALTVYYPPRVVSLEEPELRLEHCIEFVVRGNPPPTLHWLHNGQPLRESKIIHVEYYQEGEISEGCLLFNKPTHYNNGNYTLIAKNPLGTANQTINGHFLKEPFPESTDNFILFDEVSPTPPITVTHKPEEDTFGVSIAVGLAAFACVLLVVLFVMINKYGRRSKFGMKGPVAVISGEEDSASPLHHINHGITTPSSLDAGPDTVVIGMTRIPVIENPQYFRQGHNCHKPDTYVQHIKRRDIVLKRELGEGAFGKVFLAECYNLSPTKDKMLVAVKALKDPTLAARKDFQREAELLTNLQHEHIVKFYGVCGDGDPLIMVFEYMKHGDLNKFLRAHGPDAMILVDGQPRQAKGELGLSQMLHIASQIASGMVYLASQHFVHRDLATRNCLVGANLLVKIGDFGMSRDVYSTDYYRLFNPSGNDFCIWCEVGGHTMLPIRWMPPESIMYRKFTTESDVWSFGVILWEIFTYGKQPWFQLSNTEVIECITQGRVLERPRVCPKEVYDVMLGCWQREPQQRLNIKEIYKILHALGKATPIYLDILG

Chain of Calcium/calmodulin-dependent protein kinase type 1D (Homo sapiens) (Q8IU85 whole entry, looked up): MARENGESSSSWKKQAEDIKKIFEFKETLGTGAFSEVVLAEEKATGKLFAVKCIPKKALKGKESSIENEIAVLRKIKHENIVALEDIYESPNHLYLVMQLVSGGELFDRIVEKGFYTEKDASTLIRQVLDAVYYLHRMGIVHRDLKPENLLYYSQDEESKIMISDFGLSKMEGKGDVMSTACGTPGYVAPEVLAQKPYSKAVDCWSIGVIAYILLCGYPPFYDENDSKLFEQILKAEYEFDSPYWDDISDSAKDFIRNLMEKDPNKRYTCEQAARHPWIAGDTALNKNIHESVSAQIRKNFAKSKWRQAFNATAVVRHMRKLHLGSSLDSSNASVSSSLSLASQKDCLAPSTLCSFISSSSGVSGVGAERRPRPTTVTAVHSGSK
Chain of Receptor-interacting serine/threonine-protein kinase 2 (Homo sapiens) (O43353 whole entry): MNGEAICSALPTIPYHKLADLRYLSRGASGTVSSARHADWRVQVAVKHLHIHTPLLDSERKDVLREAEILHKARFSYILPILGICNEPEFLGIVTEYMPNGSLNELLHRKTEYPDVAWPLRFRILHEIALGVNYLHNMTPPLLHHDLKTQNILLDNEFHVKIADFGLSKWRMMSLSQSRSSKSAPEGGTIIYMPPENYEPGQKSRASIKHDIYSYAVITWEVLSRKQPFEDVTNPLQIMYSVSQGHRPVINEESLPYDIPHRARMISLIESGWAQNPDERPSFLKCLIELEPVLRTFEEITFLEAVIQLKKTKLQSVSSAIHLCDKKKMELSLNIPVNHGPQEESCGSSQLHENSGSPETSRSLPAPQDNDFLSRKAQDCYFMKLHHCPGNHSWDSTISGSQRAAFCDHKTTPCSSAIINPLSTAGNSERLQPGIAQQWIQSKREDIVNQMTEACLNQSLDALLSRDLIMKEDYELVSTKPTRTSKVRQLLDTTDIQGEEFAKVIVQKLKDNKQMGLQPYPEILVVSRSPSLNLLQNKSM
Chain of Proto-oncogene tyrosine-protein kinase receptor Ret (Homo sapiens) (P07949 whole entry): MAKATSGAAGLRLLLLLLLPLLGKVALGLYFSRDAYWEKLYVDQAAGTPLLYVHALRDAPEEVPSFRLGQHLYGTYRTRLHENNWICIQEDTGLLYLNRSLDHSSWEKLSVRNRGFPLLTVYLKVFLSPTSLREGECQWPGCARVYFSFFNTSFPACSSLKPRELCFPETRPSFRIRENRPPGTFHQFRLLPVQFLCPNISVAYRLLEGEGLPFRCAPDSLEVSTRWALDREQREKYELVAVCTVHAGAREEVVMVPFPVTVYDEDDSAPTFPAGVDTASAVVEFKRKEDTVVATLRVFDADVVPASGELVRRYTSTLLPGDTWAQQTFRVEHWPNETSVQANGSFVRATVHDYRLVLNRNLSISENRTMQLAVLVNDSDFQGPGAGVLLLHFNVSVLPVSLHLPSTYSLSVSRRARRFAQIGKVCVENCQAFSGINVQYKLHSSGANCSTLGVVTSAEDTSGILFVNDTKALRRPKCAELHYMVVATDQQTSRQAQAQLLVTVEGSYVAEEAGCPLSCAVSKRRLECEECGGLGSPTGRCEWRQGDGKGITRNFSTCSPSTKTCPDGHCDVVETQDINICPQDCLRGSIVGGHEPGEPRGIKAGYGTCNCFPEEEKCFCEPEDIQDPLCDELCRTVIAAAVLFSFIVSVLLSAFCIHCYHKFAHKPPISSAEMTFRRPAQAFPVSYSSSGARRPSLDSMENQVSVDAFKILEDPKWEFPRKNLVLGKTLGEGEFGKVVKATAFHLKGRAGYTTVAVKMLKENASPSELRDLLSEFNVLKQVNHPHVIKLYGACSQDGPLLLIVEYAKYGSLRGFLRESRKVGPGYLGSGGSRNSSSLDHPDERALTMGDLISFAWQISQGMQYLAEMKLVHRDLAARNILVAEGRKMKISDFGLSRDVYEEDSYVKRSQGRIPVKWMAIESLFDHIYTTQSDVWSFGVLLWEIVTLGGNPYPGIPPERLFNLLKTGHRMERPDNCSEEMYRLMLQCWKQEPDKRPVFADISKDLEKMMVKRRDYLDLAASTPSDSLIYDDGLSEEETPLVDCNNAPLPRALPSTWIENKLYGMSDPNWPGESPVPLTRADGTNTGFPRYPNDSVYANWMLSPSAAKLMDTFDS
Chain of Maternal embryonic leucine zipper kinase (Homo sapiens) (Q14680 whole entry, looked up, canonical isoform): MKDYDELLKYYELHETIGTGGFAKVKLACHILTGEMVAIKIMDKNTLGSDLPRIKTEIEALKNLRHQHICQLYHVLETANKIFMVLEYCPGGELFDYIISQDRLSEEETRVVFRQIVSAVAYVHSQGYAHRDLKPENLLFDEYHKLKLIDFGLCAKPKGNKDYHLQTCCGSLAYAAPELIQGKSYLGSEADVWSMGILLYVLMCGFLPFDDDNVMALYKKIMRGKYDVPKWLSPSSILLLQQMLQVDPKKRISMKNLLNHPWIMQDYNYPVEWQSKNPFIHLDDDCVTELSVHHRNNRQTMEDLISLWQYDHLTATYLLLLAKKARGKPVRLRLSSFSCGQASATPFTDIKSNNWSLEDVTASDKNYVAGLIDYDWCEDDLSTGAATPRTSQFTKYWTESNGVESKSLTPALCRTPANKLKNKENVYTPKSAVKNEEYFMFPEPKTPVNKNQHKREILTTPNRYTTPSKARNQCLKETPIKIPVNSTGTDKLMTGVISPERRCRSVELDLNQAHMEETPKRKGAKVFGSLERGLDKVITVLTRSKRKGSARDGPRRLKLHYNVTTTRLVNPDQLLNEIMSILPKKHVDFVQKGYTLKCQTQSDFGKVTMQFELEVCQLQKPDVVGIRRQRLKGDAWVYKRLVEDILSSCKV

| residual activity [1] | residual activity [2] | residual activity [3] | residual activity [4] | residual activity [5] | residual activity [6] | residual activity [7] | residual activity [8] | residual activity [9] | Compound |
| --- | --- | --- | --- | --- | --- | --- | --- | --- | --- |
| 90% | 89% | 81% | 67% | 100% | 85% | 93% | 79% | 166% | COc1cc2c(Oc3ccc(-c4nc5ccccc5s4)cc3)ncnc2cc1OCCCN1CCCC1 |
| 95% | 87% | 68% | 62% | 82% | 98% | 103% | 78% | 188% | COc1cc2c(Oc3ccc(-c4nc5ccccc5s4)cc3)ncnc2cc1OCCCN1CCN(C)CC1 |
| 78% | 81% | 58% | 90% | 64% | 77% | 88% | 72% | 132% | COc1cc2c(Oc3ccc(-c4nc5ccccc5s4)cc3F)ncnc2cc1OCCCN1CCN(C)CC1 |
